Columns and labels:
15-PGDH = 15-PGDH (Mus musculus, UniProt Q8VCC1); conditions: aged muscles, one month of daily intraperitoneal treatment, cited from earlier work
[1] = system: OA knee joints of adult mice; experiment: Tibia loading (ACL rupture) post-traumatic OA in adult mice, intra-articular injections: Safranin O histology and OARSI scoring; type: in vivo, mice C57BL/6; conditions: tibial compression OA, intra-articular twice a week for 4 weeks
Description: (§1) Tibia loading to induce osteoarthritis in young mice. Briefly, mice were anesthetized using 2.5% isoflurane inhalation under 4 L/min of oxygen. The right tibia was positioned vertically, with the ankle upward and the knee downward in deep flexion between loading cups. Using a material testing machine (Instron ElectroPulse E1000), axial compression was applied through the knee via the upper cup, while the lower cup was fixed and linked to the load cell. The ACL tear was confirmed by the release of compressive force during compression. Mice were allowed to progress for 6 weeks after loading (n=8 for each group). Contralateral left limb served as a non-loaded control. Mice blood serum was collected via retro-orbital bleeding to do multiplex autoantibody assay. Mice were sacrificed by cervical dislocation and knee joint were collected for assessment.
(§2) Histology on mouse joints and human cartilage explants. Mouse joints were fixed in 4% paraformaldehyde overnight, dehydrated in ethanol and embedded in paraffin. Sagittal Sections (5 μm) of the mouse joints were cut by the Histoserv, Inc (Germantown, MD). Cartilage histology was performed by Safranin O (Saf O) staining as previously reported (Smeriglio et al., 2020, Sci Transi. Med. 12:eaax2332). Joints were assessed through blinded grading with the OARSI scoring system. Briefly, sections of mouse joints were stained with Safranin O, and cartilage degeneration was evaluated by assigning numbers 0 to 4 for increasing depth of cartilage degeneration (OARSI scoring system). For the summit scores, five regions were summed.
To test whether 15-PGDH inhibition would be protective in younger, adult mice upon induction of OA, OA was induced in young, adult mice (3 months old) by application of tibial compression on the mouse knee leading to anterior crucial ligament (ACL) rupture. This injury model recapitulates ACL injury frequently observed in human patients. After 1 week of injury, local intra-articular injections of vehicle or SW were given twice a week for 4 weeks. […]

PGE2 levels = conditions: in vivo, bone marrow, colon, lung and liver, cited from earlier work
[2] = system: human OA cartilage explants; experiment: Human OA cartilage explants: DMMB assay for sGAG; type: cell-based; conditions: SW 10 uM, 7 days, vs vehicle
Description: Human cartilage tissue collection and treatment. Human cartilage samples were harvested from the surgical knee tissue discards of patients (n>5, age ranging from 55-75 years) undergoing total knee arthroplasty according to approved human subjects institutional review board protocols at Stanford University. Informed, written consent was given by the patients prior to the study. Cylindrical explants (4 mm diameter, 2-4 mm thickness) were extracted from the cartilage samples using standard biopsy punches (Integra, NJ. USA). […]
1,9-dimethylmethylene Blue (DMMB) and Pico-green Assays. […] Briefly, 20 μL sample was mixed with 200 μL DMMB solution (16 mg DMMB dye dissolved in an aqueous solution of 0.03 m NaCl, 40 mm glycine, 9.5% 0.1 m acetic acid, pH 3.0) and absorbance was measured at 525 nm immediately. […] The DNA content in OA explants was measured by Pico-green assay (Quant-iT Pico-green dsDNA Assay Kit, Invitrogen) as per manufacturer's instructions using the same papain digest supernatant of the OA explants. Quantified sulfated GAG content in OA cartilage explants was normalized to the weight of corresponding explants and the DNA content.
(§3) Next, the effects of 15-PGDH inhibition in human OA cartilage were tested. […] Sulphated glycosaminoglycans (sGAG) were also independently quantified through measurements with the DMMB dye. […]

[3] = system: human OA cartilage explants; experiment: Human OA cartilage explants: Ki67 immunostaining; type: cell-based
Description: (§4) Human cartilage tissue collection and treatment. Human cartilage samples were harvested from the surgical knee tissue discards of patients (n>5, age ranging from 55-75 years) undergoing total knee arthroplasty according to approved human subjects institutional review board protocols at Stanford University. Informed, written consent was given by the patients prior to the study. Cylindrical explants (4 mm diameter, 2-4 mm thickness) were extracted from the cartilage samples using standard biopsy punches (Integra, NJ. USA). Cartilage explants were cultured in DMEM-F12 medium supplemented with 10% fetal bovine serum (FBS), 25 μg mL^−1 ascorbic acid, 1× glutamine, and 1× antibiotic-antimycotic solution prior to experiments. To assess the effect of 15-PGDH inhibition, explants were treated with Vehicle (DMSO) or SW (10 uM) for 1 week prior to the assessment. Fresh media was added to the explants every other day.
Cell cycle marker-Ki67 immunostaining. Human OA explants treated with vehicle and SW were fixed and embedded in OCT as described in previous section, 10 μm sections on poly-1-lysine-coated glass slides were obtained using a cryostat. Immunostaining was performed using a standard protocol. […]
as §3

[4] = system: human OA cartilage explants; experiment: Human OA cartilage explants: Safranin O staining; type: cell-based; conditions: SW 10 uM, 1 week, all zones, especially middle and deep zone
Description: as §4
After 1 week of treatment with SW, explants were fixed in 4% paraformaldehyde, washed with PBS, and cryopreserved in 30% sucrose solution overnight. […] Explants from at least five different patient donors and multiple (>5) sections were used for quantitative analysis.
as §3

knee joints of aged mice = experiment: Systemic i.p. treatment of aged mice: knee joint Safranin O histology and OARSI scoring; type: in vivo, mice C57BL/6; conditions: 5 mg/kg i.p. daily for 1 month
Method: Mice handling. All experiments and protocols were performed in accordance with the institutional guidelines of Stanford University and Administrative Panel on Laboratory Animal Care (APLAC). Aged (24-28 mo.) mice C57BL/6 were obtained from the US National Institute on Aging (NIA) aged colony.
as §2
SW was previously extensively characterized as a specific inhibitor of 15-PGDH in vitro (ki of 0.1 nM).

[5] = system: chondrocytes in articular cartilage; experiment: Transmission electron microscopy of chondrocytes in articular cartilage, mitochondria per cell; type: in vivo, mice
Method: Transmission electron microscopy (TEM). Knee joints were fixed in Karnovsky's fixative composed of 2% Glutaraldehyde (EMS Cat #16000) and 4% paraformaldehyde (EMS Cat #15700) in 0.1M Sodium Cacodylate (EMS Cat #12300) pH 7.4 for 4 hours at 4° C. Joints were washed with cold PBS 3× and then decalcified in 14% EDTA solution in PBS for 3 days at 4° C. Samples were washed with PBS and placed in cold/aqueous 1% osmium tetroxide (EMS Cat #19100) on a rotator and allowed to warm to room temperature (RT) for 1 hr. Samples were washed 3× with ultrafiltered water followed by staining in 1% uranyl acetate at RT for 2 hours. Samples were then dehydrated in a series of ethanol washes for 30 minutes each at RT beginning at 50%, 70% and finally moved to 4° C. overnight. They were placed in cold 95% EtOH and allowed to warm to RT, changed to 100% 2×, then Propylene Oxide (PO) for 15 min. Samples were infiltrated with EMbed-812 resin (EMS Cat #14120) mixed 1:2, 1:1, and 2:1 with PO for 2 hrs each with leaving samples in 2:1 resin to PO overnight rotating at RT in the hood. The samples were then placed into EMbed-812 for 2 to 4 hours then placed into molds w/labels and fresh resin, orientated and placed into 65° C. oven overnight. […]

cartilage from aged mice = experiment: RNA-seq, differential gene expression and Ingenuity Pathway Analysis of cartilage from aged mice treated systemically; type: in vivo
Method: Mice handling. […] Aged (24-28 mo.) mice C57BL/6 were obtained from the US National Institute on Aging (NIA) aged colony.
RNA extraction and library preparation from mouse joints for RNA seq. Knee joint microdissection was performed under a stereoscope to collect cartilage tissue by carefully eliminating any tendons, synovial membrane and meniscal residue and then shaving the cartilage tissue from the underlying bone (Smeriglio et al., 2020, Sci Transl. Med. 12:eaax2332). The isolated cartilage tissue was kept in RNA later (Ambion) and stored at −80° C. for later use. Cartilage tissue was homogenized in Trizol using a bullet blender (Next Advance), followed by RNA extraction and purification using RNeasy micro-kit (Qiagen). cDNA libraries were constructed from 10 ng total RNA using SMARTer stranded Total RNA-Seq kit v3 (Takara Bio). Libraries were sequenced to 25-30×10^6 150-bp paired end reads per sample on an Illumina NovaSeq platform (Novogene, CA).
Differential Gene Expression Analysis. For the RNA-seq analysis, pseudo aligner Salmon was used to quantify the expression of transcripts. Sequences were also aligned against the Mus musculus genome (mm9) using the STAR aligner. A counts matrix containing the number of counts for each gene and each sample was obtained. This matrix was analyzed by DESeq2 to calculate statistical analysis of significance of genes between samples. […] Functional analysis of differentially expressed genes was analyzed using Ingenuity Pathway Analysis (IPA) and DAVID bioinformatic tools.
To identify the downstream molecular pathways through which 15-PGDH may exert its effect on aged cartilage, transcriptomic analysis of vehicle and SW treated cartilage from aged mice (24 mo) was performed and compared to cartilage from young adult mice (3 mo) through RNA-seq.

[6] = system: human OA cartilage explants; experiment: Human OA cartilage explants: Luminex cytokine panel on culture medium; type: cell-based; conditions: culture medium (secretome) of SW treated explants vs vehicle
Description: as §4
(§5) Luminex Assay. This assay was performed at the Human Immune Monitoring Center at Stanford University. Human 76-plex or mouse 48-plex kits (eBioscience/Affymetrix) were used according to the manufacturer's recommendations. Briefly, antibody beads and samples were added to a 96-well plate and incubated at room temperature for 2 hours, followed by overnight incubation at 4° C. with shaking at 500 to 600 rpm. Plates were then washed in a w ash buffer, and biotinylated detection antibody was added for 2 hours at room temperature with shaking. Plate was washed, and streptavidin-phycoerythrin was added After 40 min incubation and washes, reading buffer was added to the wells Plates were read using a Luminex 200 instrument with a lower bound of 50 beads per sample per cytokine. Custom assay control beads were added to all wells. The raw MFI read-outs of all samples were used and analyzed by GraphPad prism.
as §3

[7] = system: inflammatory cytokine levels; experiment: Luminex cytokine panel on serum of OA mice given intra-articular injections; type: in vivo; conditions: vs vehicle
Description: as §1, §5
To test whether 15-PGDH inhibition would be protective in younger, adult mice upon induction of OA, OA was induced in young, adult mice (3 months old) by application of tibial compression on the mouse knee leading to anterior crucial ligament (ACL) rupture. This injury model recapitulates ACL injury frequently observed in human patients. After 1 week of injury, local intra-articular injections of vehicle or SW were given twice a week for 4 weeks. […] Upon blinded scoring of mice knee joints based on the OARSI scoring system, it was observed that the maximal damage score. […] To assess the inflammation in these mice, serum was utilized from vehicle or SW injected mice to test for a 39-plex Luminex cytokine panel. […] These observations corroborated that local 15-PGDH inhibition by SW treatment not only enhances cartilage regeneration but also decreases the inflammation in osteoarthritic mice.

[8] = SW treated aged cartilage, almost to the levels of young cartilage
[9] = aged cartilage, SW vs vehicle, among 301 DEGs

15-PGDH, sequence (Q8VCC1 whole entry): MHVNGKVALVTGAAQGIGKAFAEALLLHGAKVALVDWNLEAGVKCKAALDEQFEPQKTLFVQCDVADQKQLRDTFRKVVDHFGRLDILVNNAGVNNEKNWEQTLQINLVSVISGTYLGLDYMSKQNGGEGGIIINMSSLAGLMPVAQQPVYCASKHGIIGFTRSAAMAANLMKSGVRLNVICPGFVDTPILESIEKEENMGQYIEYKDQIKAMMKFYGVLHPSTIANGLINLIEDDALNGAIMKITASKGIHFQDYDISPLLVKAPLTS

## CCCC[S+]([O-])c1sc2nc(-c3cccs3)cc(-c3ccccc3)c2c1N (stereo not shown) [SW033291, 2-(butylsulfinyl)-4-phenyl-6-(thiophen-2-yl)thieno[2,3-b]pyridin-3-amine]
15-PGDH; LC-MS/MS
  levels of PGE2 and PGD2: concomitant increase
15-PGDH
  15-PGDH specific activity: significantly reduced
[1]; 3-month-old mice, 6 weeks
  GAG staining and cartilage degradation (Safranin O): higher GAG staining and reduced cartilage degradation
[1]; vs vehicle
  OARSI Maximum score: significantly decreased
  OARSI Summit score: significantly decreased
PGE2 levels
  increase of PGE2 levels: 2 fold
PGE2 levels; compared with PGE2 increase
  increase of PGD2 levels: to a lesser extent
[2]
  GAG content (sGAG, DMMB dye): significantly increased
[3]; SW vs vehicle treated cells
  Ki67 intensity distribution: increased Ki67 expression
[3]; SW vs vehicle treated explants
  Ki67 positive cells: increase in Ki67 positive cells
[4]
  GAG staining (Safranin O): increase in GAG staining
Knee joints of aged mice
  cartilage structure (safranin O staining of knee joints): improved cartilage structure with increased thickness, GAG staining and smoother cartilage surface
Knee joints of aged mice; vs control
  OARSI Maximum score: significantly decreased
  OARSI Summit score: significantly decreased
[5]; aged cartilage, SW treated vs vehicle treated
  number of mitochondria per cell (TEM images): significant increase
[5]; aged chondrocytes, SW treatment, compared with young cartilage
  mitochondria per cell, quantification with Image J: restoring the mitochondria number in aged chondrocytes to the level of young cartilage
Cartilage from aged mice; SW treated aged cartilage
  genes involved in mitochondrial function and metabolism (IPA): significant upregulation
Cartilage from aged mice; [8]
  COX5a expression: significantly upregulated
  Ndufa9 expression: significantly upregulated
Cartilage from aged mice; [9]
  number of downregulated differentially expressed genes: 154
  number of upregulated differentially expressed genes: 147
[6]
  CCL5 level: significant reduction
  GMCSF level: significant reduction
  IL6 level: significant reduction
[7]
  CCL4 level: significant downregulation
  CCL7 level: significant downregulation
  CXCL10 level: significant downregulation
  IL2 level: significant downregulation
  IL27 level: significant downregulation
  VEGF level: significant downregulation
  inflammatory cytokine levels: overall reduction

Reference: patent US20240100027A1, “INHIBITION OF PROSTAGLANDIN DEGRADING ENZYME 15-PGDH TO IMPROVE JOINT STRUCTURE AND FUNCTION” (The Board of Trustees of the Leland Stanford Junior …, priority 2020, published 2024)
